Measurements: patent publication EP0003920A1, “Thieno (3,2-c)- and thieno (2,3-c)pyridines, process for their preparation and their therapeutical application” (OMNIUM FINANCIER AQUITAINE POUR L'HYGIENE ET LA SANTE - …, priority 1978, dated 1979)

What was measured:
[1] = Acute toxicity, intravenous LD50 (method of Miller and Tainter); parameters: species or system souris; conditions: mouse, in vivo, read-out: DL50/24 H/kg de poids corporel
Description: En ce qui concerne la toxicité aigüe, la DL50/24 H/kg de poids corporel, déterminée chez la souris selon la méthode de Miller et Tainter pour la voie orale est supérieure à 400 mg pour tous les dérivés.
Selon la même méthode, la DL50/24 H/kg de poids corporel déterminée par la vole intraveineuse est, par exemple, de 154 mg pour le dérivé N° 1, de 89 mg pour le dérivé N° 2, de 184mg pour le dérivé N° 10, de 130 mg pour le dérivé N° 11, de 350mg pour le dérivé N° 12, de 65 mg pour le dérivé N° 18, de 90 mg pour le dérivé N° 22, de 96 mg pour le dérivé N° 24 et de 105 mg pour le dérivé N° 31.

rat [2] = test: Anticonvulsant action against electroshock; assay type: in vivo; conditions: 100 mg/kg oral, electroshock 30 min after treatment, score 0 to 4, untreated controls 4
Description: Cette action a été étudiée vis-à-vis des électrochocs. L'application chez le rat d'une stimulation électrique supérieure au seuil électro-convulsivant provoque des convulsions expérimentales. On compare alors chez les animaux témoins et chez les animaux traités, à la fois la présence et la durée de chacune des phases convulsives et l'intensité de la crise dans son ensemble.
On établit des séries de 10 rats par produit à tester et on administre par la voie orale, à chaque animal, 100 mg/kg de ce produit.
De chaque côté de la base de la queue de chaque […], une électrode Cat mise en place et 30 minutes après le traitement, l'animal placé dans une enceinte de verre reçoit pendant 50 millisecondes un courant sinusoïdal de 50 périodes/secondes de 120 volts.
Le passage du courant déclenche une crise convulsive dont chacune des phases (tonique, clonique, relachement musculaire) est chronométrée. L'intensité de la crise est alors notée de 0 à 4 selon la présence de chacune des phases et leur durée. Les produits de l'invention sont testés comparativement au phénobarbital qui possède une action anti-convulsivante marquée (intensité de la crise = 2), alors que chez les animaux témoins non traités c'est l'intensité maxima de 4 qui est obtenue.

rat [3] = test: Localised carrageenan-induced oedema; assay type: in vivo; conditions: 100 mg/kg oral at -1 h, 0 h, +2.5 h
Description: Une solution de carragénine (0,1 ml), à 1 %, est injectée dans les fléchisseurs métatarsiens de la patte postérieure droite du rat au temps 0. Les animaux du lot traité reçoivent en outre, par la voie orale, 100 mg par kg du dérivé à tester respectivement 1 heure avant, en même temps que l'injection de l'agent phlogogène, puis 1 heure et 2 heures et demi après. Les mesures qui sont effectuées à l'aide du micromètre de ROGH au temps 0, 1 heure, 2 heures, 3 heures et 5 heures après l'administration de la carragénine permettent de déterminer, en fonction du temps, le pourcentage d'activité anti-inflammatoire, par comparaison avec le lot témoin.

rat [4] = test: Generalised ovalbumin oedema; assay type: in vivo; conditions: po, 100 mg/kg per os 1 h before and together with ovalbumin
Description: Une injection intrapéritonéale simultanée de 1 ml d'ovalbumine et de 0,5 ml d'une solution aqueuse de bleu Evans à 1% est effectuée sur le rat. D'autre part, on administre per os aux animaux du lot traité 100 mg/kg du dérivé à tester une heure avant et en même temps que l'ovalbumine. L'intensité du phénomène ainsi provoqué est notée par un chiffre allant de 1 à 5 suivant la progression du syndrome inflammatoire. On détermine ainsi la moyenne de l'intensité oedémateuse et le pourcentage de diminution de la réaction oedémateuse par rapport au témoin, en fonction du temps.

souris = test: Potentiation of an infra-hypnotic dose of sodium pentobarbital; assay type: in vivo; conditions: mouse, 100 mg/kg oral, 30 min before i.p. infra-hypnotic dose of sodium pentobarbital; control 0
Description: Les composés de l'invention potentialisent de façon très nette l'action des hypnotiques. En effet, administrés à différents lots de souris par la voie orale, à la dose de 100 mg/ kg, trente minutes avant l'injection intrapéritonéale d'une dose infra-hypnotique de pentobarbital sodique, ils produisent par rapport aux animaux témoins non traités, une nette poten- tialisation de l'action du barbiturique.
En effet, le nombre de souris endormies, le temps moyen d'endormissement et la durée du sommeil sont nettement accrus dans les lots traités. Les résultats des composés les plus actifs sont rassemblés dans le Tableau I suivant.

[5] = 1 h after carrageenan, read-out: Pourcentage d'activité anti-inflammatoire 1ère heure
[6] = 2 h after carrageenan, read-out: Pourcentage d'activité anti-inflammatoire 2ème heure
[7] = 3 h after carrageenan, read-out: Pourcentage d'activité anti-inflammatoire 3ème heure
[8] = 5 h after carrageenan, read-out: Pourcentage d'activité anti-inflammatoire 5ème heure
[9] = 2 h after ovalbumin injection, read-out: Pourcentage d'activité anti-inflammatoire 2ème heure
[10] = 3 h after ovalbumin injection, read-out: Pourcentage d'activité anti-inflammatoire 3ème heure

SMILES | LD50 at 24 h [1] | valeurs moyennes de l'intensité des crises (rat [2]) | inhibition in vivo at 100 mg/kg (rat [3]; [5]) | inhibition in vivo at 100 mg/kg (rat [3]; [6]) | inhibition in vivo at 100 mg/kg (rat [3]; [7]) | inhibition in vivo at 100 mg/kg (rat [3]; [8]) | inhibition in vivo at 100 mg/kg (rat [4]; [9]) | inhibition in vivo at 100 mg/kg (rat [4]; [10]) | Pourcentage d'animaux endormis (souris)
CN(C)CCNC(=O)c1cc2sccc2cn1 [Dérivé 2, β -diméthylaminoéthylaminocarbonyl-6 thiéno [3,2-c] pyridine] | 89 mg/kg |  |  |  |  |  |  |  | 
CCNC(=O)c1cc2sccc2cn1 [Dérivé 4, Ethylaminocarbonyl-6 thiéno [3,2-c] pyridine] |  | 3 | 41% | 46% | 50% | 58% | 47% | 56% | 
CC(C)NC(=O)c1cc2ccsc2cn1 [Dérivé 5, Isopropylaminocarbonyl-5 thiéno [2,3-c] pyridine] |  | 2,5 | 43% | 49% | 54% | 56% | 52% | 60% | 80%
CCCCNC(=O)c1cc2sccc2cn1 [Dérivé 6, n-butylaminocarbonyl-6 thiéno [3,2-c] pyridine] |  |  |  |  |  |  |  |  | 80%
CCN(CC)C(=O)c1cc2sccc2cn1 [Dérivé 9, Diéthylaminocarbonyl-6 thiéno[3,2-c] pyridine] |  | 2,5 |  |  |  |  |  |  | 
O=C(c1cc2sccc2cn1)N1CCCC1 [Dérivé 10, (pyrrolidinyl-1)carbonyl-6 thiéno[3,2-c] pyridine] | 184 mg/kg |  | 37% | 42% | 46% | 51% | 47% | 55% | 90%
O=C(c1cc2sccc2cn1)N1CCCCC1 [Dérivé 11, Pipéridinocaxbonyl-6 thiéno [3,2-c] pyridine] | 130 mg/kg |  |  |  |  |  |  |  | 
O=C(c1cc2sccc2cn1)N1CCOCC1 [Dérivé 12, Morpholinocarbonyl-6 thiéno [3,2-c] pyridine] | 350 mg/kg |  |  |  |  |  |  |  | 
O=C(NCc1ccccc1)c1cc2ccsc2cn1 [Dérivé 13, Benzylaminocarbonyl-5 thiéno [2,3-c] pyridine] |  | 3 | 34% | 40% | 45% | 51% | 50% | 56% | 
O=C(NCCc1ccccc1)c1cc2sccc2cn1 [Dérivé 15, Phénéthylaminocarbonyl-6 thiéno[3,2-c] pyridine] |  |  | 38% | 45% | 49% | 53% | 53% | 60% | 90%
C=CCNC(=O)c1cc2sccc2cn1 [Dérivé 16, Allylaminocarbonyl-6 thiéno [3,2-c] pyridine] |  |  |  |  |  |  |  |  | 70%
O=C(NCCN1CCOCC1)c1cc2sccc2cn1 [Dérivé 19, β -morpholinoéthylaminocarbonyl-6 thiéno[3,2-c] pyridine] |  | 2,5 |  |  |  |  |  |  | 
O=C(NCc1ccncc1)c1cc2ccsc2cn1 [Dérivé 21, (pyridyl-4-méthyl)aminocarbonyl-5-thiéno[2,3-c] pyridine] |  |  | 40% | 48% | 51% | 54% | 45% | 52% | 
O=C(NCc1cccnc1)c1cc2ccsc2cn1 [Dérivé 23, (pyridyl-3 méthyl)aminocarbonyl-5 thiéno [2,3-c]pyridine] |  |  |  |  |  |  |  |  | 80%
O=C(NCc1cccnc1)c1cc2sccc2cn1 [Dérivé 24, (pyridyl-3 méthyl)aminocarbonyl-6 thiéno[3,2-c] pyridine] | 96 mg/kg |  |  |  |  |  |  |  | 
O=C(Nc1cccc(C(F)(F)F)c1)c1cc2sccc2cn1 [Dérivé 25, (trifluorométhyl-3 phényl)aminocarbonyl-6 thiéno[3,2-c] pyridine] |  | 2,5 | 39% | 46% | 49% | 52% | 51% | 59% | 90%
Cc1ccc(N2CCN(C(=O)c3cc4sccc4cn3)CC2)cc1 [Dérivé 26, (p-tolyl-4 pipérazinyl-1)carbonyl-6 thiéno[3,2-c]bvridine] |  |  |  |  |  |  |  |  | 90%
O=C(c1cc2sccc2cn1)N1CCN(c2ccccc2Cl)CC1 [Dérivé 27, (o-chlorophényl-4 pipérazinyl-1) carbonyl-6 thiéno[3,2-c] pyridine] |  |  | 41% | 49% | 52% | 54% | 47% | 56% | 
O=C(c1cc2sccc2cn1)N1CCN(c2cccc(Cl)c2)CC1 [Dérivé 28, (m-chlorophényl-4 pipérazinyl-1)carbonyl-6 thiéno[3,2-c] pyridine] |  |  |  |  |  |  |  |  | 80%
COc1ccc(N2CCN(C(=O)c3cc4sccc4cn3)CC2)cc1 [Dérivé 29, (p-méthoxyphényl-4 pipérazinyl-1) carbonyl-6 tniéno[3,2-c] pyridine] |  |  |  |  |  |  |  |  | 90%
COc1ccccc1N1CCN(C(=O)c2cc3ccsc3cn2)CC1 [Dérivé 30, (o-méthoxyphényl-4 pipérazinyl-1) carbonyl-5 thiéno[2,3-c] pyridine] |  | 2,5 | 38% | 45% | 49% | 53% | 48% | 56% | 
NC(=O)c1cc2ccsc2cn1 [Dérivé 32, Carbamoyl-5 thiéno [2,3-c] pyridine] |  |  | 34% | 41% | 45% | 47% | 52% | 60% | 
CCC1(c2ccccc2)C(=O)NC(=O)NC1=O [phénobarbital, reference compound] |  | 2 |  |  |  |  |  |  | 
